Assay results taken from patent US8575156B2, “Cyclic inhibitors of 11β-hydroxysteroid dehydrogenase 1” (Vitae Pharmaceuticals, Inc., priority 2007, dated 2013).
Where two headings read alike, the source gives them in different places.

Target: 11β-HSD1 (Homo sapiens, UniProt P28845)
Test: biochemical
Settings: for IC50: IC50 Range, Biological Test Example 1, microsomes from CHO cells overexpressing human 11β-HSD1
[1] = read-out: Average % inhibition at 111.1 nM, Biological Test Example 1, 111.1 nM compound
[2] = read-out: Average % inhibition at 100 nM, Biological Test Example 1, 100 nM compound
[3] = read-out: Average % inhibition at 100 nM, Biological Test Example 1, 100 nM
[4] = read-out: Average % inhibition at 111.1 nM

Chain of 11β-HSD1 (P28845 whole entry): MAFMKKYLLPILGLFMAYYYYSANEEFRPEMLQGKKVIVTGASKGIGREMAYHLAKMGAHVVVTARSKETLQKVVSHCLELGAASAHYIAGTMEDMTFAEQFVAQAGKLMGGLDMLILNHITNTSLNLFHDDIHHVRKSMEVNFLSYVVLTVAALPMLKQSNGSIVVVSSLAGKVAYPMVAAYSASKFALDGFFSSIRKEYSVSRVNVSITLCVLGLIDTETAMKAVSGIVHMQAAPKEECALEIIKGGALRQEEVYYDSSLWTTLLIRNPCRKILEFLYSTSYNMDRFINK

SMILES: O=C1OC(CCO)(c2ccccc2)CCN1c1ccc(F)c(-c2ccc(F)cc2)c1 (stereo not drawn) [EXAMPLE 96, 3-(4′,6-difluorobiphenyl-3-yl)-6-(2-hydroxyethyl)-6-phenyl-1,3-oxazinan-2-one]
- IC50: < 100 nM
- inhibition at 0.1111 µM [1]: 91.9%

SMILES: CC(O)C[C@]1(c2ccccc2)CCN([C@@H](C)c2ccc(-c3ccc(F)cc3F)cc2)C(=O)O1 (stereo partly drawn) [EXAMPLE 170, (6S)-3-((S)-1-(2′,4′-difluorobiphenyl-4-yl)ethyl)-6-(2-hydroxypropyl)-6-phenyl-1,3-oxazinan-2-one]
- IC50: < 100 nM
- inhibition at 0.1 µM [2]: 97%

SMILES: Cc1ccccc1C1(C)CCN([C@@H](C)c2ccccc2)C(=O)O1 (stereo partly drawn) [EXAMPLE 86, 6-methyl-3-((S)-1-phenylethyl)-6-o-tolyl-1,3-oxazinan-2-one]
- IC50: < 100 nM
- inhibition at 0.1111 µM [1]: 85.7%

SMILES: Cc1ccc([C@H](C)N2CC[C@](CCCO)(c3ccccc3)OC2=O)cc1 [EXAMPLE 423, (R)-6-(3-hydroxypropyl)-6-phenyl-3-((S)-1-p-tolylethyl)-1,3-oxazinan-2-one]
- IC50: < 100 nM
- inhibition at 0.1 µM [3]: 97.6%

SMILES: C[C@@H](c1ccc(OC(F)F)cc1)N1CC[C@](CCO)(c2ccccc2)OC1=O [EXAMPLE 327, (S)-3-((S)-1-(4-(difluoromethoxy)phenyl)ethyl)-6-(2-hydroxyethyl)-6-phenyl-1,3-oxazinan-2-one]
- IC50: < 100 nM
- inhibition at 0.1 µM [3]: 97.2%

SMILES: CC1(c2ccccc2)CCN(c2cccc(-c3ccccc3S(C)(=O)=O)c2)C(=O)O1 (stereo not drawn) [EXAMPLE 15, 6-methyl-3-(2′-(methylsulfonyl)biphenyl-3-yl)-6-phenyl-1,3-oxazinan-2-one]
- IC50: 100 to 1000 nM
- inhibition at 0.1111 µM [1]: 38.5%

SMILES: C=CCC1(c2ccc(F)cc2)CCN([C@@H](CC)c2ccc(Br)cc2)C(=O)O1 (single isomer, unassigned) [EXAMPLE 130 Isomer 1]
- IC50: < 100 nM
- inhibition at 0.1 µM [2]: 92.2%

SMILES: C[C@@H](c1ccc(-c2ccc(F)cc2)cc1)N1CC[C@](CCN2CCOCC2)(c2ccccc2)OC1=O [EXAMPLE 491, (R)-3-((S)-1-(4′-fluorobiphenyl-4-yl)ethyl)-6-(2-morpholinoethyl)-6-phenyl-1,3-oxazinan-2-one]
- IC50: < 100 nM
- inhibition at 0.1 µM [3]: 99.3%

SMILES: COc1ccc([C@H](C)N2CC[C@](CCC(C)(C)O)(c3ccc(F)cc3)OC2=O)cc1 [EXAMPLE 426, (R)-6-(4-fluorophenyl)-6-(3-hydroxy-3-methylbutyl)-3-((S)-1-(4-methoxyphenyl)ethyl)-1,3-oxazinan-2-one]
- IC50: < 100 nM
- inhibition at 0.1 µM [3]: 82.5%

SMILES: O=C1OC(CCO)(c2ccccc2)CCN1c1cccc(-c2ccc(F)cc2Cl)c1 (stereo not drawn) [EXAMPLE 68, 3-(2′-chloro-4′-fluorobiphenyl-3-yl)-6-(2-hydroxyethyl)-6-phenyl-1,3-oxazinan-2-one]
- IC50: < 100 nM
- inhibition at 0.1 µM [2]: 92%
- inhibition at 0.1111 µM [1]: 92.9%

SMILES: CC1(c2ccccc2)CCN(c2ccnc(-c3cccc(F)c3)n2)C(=O)O1 (stereo not drawn) [EXAMPLE 56, 3-(2-(3-fluorophenyl)pyrimidin-4-yl)-6-methyl-6-phenyl-1,3-oxazinan-2-one]
- IC50: 100 to 1000 nM
- inhibition at 0.1111 µM [4]: 5.6%

SMILES: COC(=O)c1ccc(-c2cccc(N3CCC(C)(c4ccccc4)OC3=O)c2)cc1 (stereo not drawn) [EXAMPLE 46, methyl 3′-(6-methyl-2-oxo-6-phenyl-1,3-oxazinan-3-yl)biphenyl-4-carboxylate]
- IC50: 100 to 1000 nM
- inhibition at 0.1111 µM [1]: 46.4%

SMILES: C=CC[C@@]1(c2ccc(F)cc2)CCN([C@@H](C)c2ccc(-c3ccc(F)cc3F)cc2)C(=O)O1 (single isomer, unassigned) [EXAMPLE 111 Isomer 1]
- IC50: < 100 nM
- inhibition at 0.1111 µM [1]: 90.9%

SMILES: C[C@@H](c1ccc(Br)cc1)N1CC[C@](CC2(O)CC2)(c2ccc(F)cc2)OC1=O [EXAMPLE 500, (S)-3-((S)-1-(4-bromophenyl)ethyl)-6-(4-fluorophenyl)-6-((1-hydroxycyclopropyl)methyl)-1,3-oxazinan-2-one]
- IC50: < 100 nM
- inhibition at 0.1 µM [3]: 98.2%

SMILES: O=C1OC(CCO)(c2ccccc2F)CCN1c1ccc(F)c(-c2ccc(F)cc2)c1 (stereo not drawn) [EXAMPLE 67, 3-(4′,6-difluorobiphenyl-3-yl)-6-(2-fluorophenyl)-6-(2-hydroxyethyl)-1,3-oxazinan-2-one]
- IC50: < 100 nM
- inhibition at 0.1 µM [2]: 93.1%
- inhibition at 0.1111 µM [1]: 96.6%

SMILES: CC1(c2ccccc2)CCN(c2cccc(-c3ccccc3CO)c2)C(=O)O1 (stereo not drawn) [EXAMPLE 35, 3-(2′-(hydroxymethyl)biphenyl-3-yl)-6-methyl-6-phenyl-1,3-oxazinan-2-one]
- IC50: 100 to 1000 nM
- inhibition at 0.1111 µM [1]: 26.7%

SMILES: C[C@@H](c1ccc(-c2ccc(F)cc2F)cc1)N1CC[C@](CCCOP(=O)(O)O)(c2ccccc2)OC1=O [EXAMPLE 492, 3-((R)-3-((S)-1-(2′,4′-difluorobiphenyl-4-yl)ethyl)-2-oxo-6-phenyl-1,3-oxazinan-6-yl)propyl dihydrogen phosphate]
- IC50: < 100 nM
- inhibition at 0.1 µM [3]: 87.7%

SMILES: COC(=O)c1ccc([C@H](C)N2CC[C@](CCCO)(c3ccc(F)cc3)OC2=O)cc1 [EXAMPLE 127, Methyl 4-((S)-1-((R)-6-(4-fluorophenyl)-6-(3-hydroxypropyl)-2-oxo-1,3-oxazinan-3-yl)ethyl)benzoate]
- IC50: < 100 nM
- inhibition at 0.1 µM [2]: 86.3%

SMILES: C=CC[C@]1(c2ccc(F)cc2)CCN([C@@H](C)c2ccc(C(N)=O)cc2)C(=O)O1 [EXAMPLE 153, 4-((S)-1-((R)-6-allyl-6-(4-fluorophenyl)-2-oxo-1,3-oxazinan-3-yl)ethyl)benzamide]
- IC50: 100 to 1000 nM
- inhibition at 0.1 µM [2]: 27%
- inhibition at 0.1111 µM [1]: 26.6%

SMILES: CC(O)CC[C@]1(c2ccc(F)cc2)CCN([C@@H](C)c2ccc(F)cc2)C(=O)O1 (single isomer, unassigned) [EXAMPLE 411 Isomer 1]
- IC50: < 100 nM
- inhibition at 0.1 µM [3]: 88.7%

SMILES: C[C@@H](c1ccc(Br)cc1)N1CC[C@](CCN2CCCS2(=O)=O)(c2ccccc2)OC1=O [EXAMPLE 513, (S)-3-((S)-1-(4-bromophenyl)ethyl)-6-(2-(1-dioxo-isothiazolidin-2-yl)ethyl)-6-phenyl-1,3-oxazinan-2-one]
- IC50: < 100 nM
- inhibition at 0.1 µM [3]: 84.4%

SMILES: Cc1nnc(C[C@]2(c3ccccc3)CCN([C@@H](C)c3ccc(Br)cc3)C(=O)O2)s1 [EXAMPLE 531, (S)-3-((S)-1-(4-bromophenyl)ethyl)-6-((5-methyl-1,3,4-thiadiazol-2-yl)methyl)-6-phenyl-1,3-oxazinan-2-one]
- IC50: < 100 nM
- inhibition at 0.1 µM [3]: 73.5%

SMILES: C[C@@H](c1ccc(Cl)cc1)N1CC[C@](CC(C)(C)O)(c2ccc(F)cc2)OC1=O [EXAMPLE 381, (S)-3-((S)-1-(4-chlorophenyl)ethyl)-6-(4-fluorophenyl)-6-(2-hydroxy-2-methylpropyl)-1,3-oxazinan-2-one]
- IC50: < 100 nM
- inhibition at 0.1 µM [3]: 97.2%

SMILES: NC(=O)c1ccc(-c2ccccc2CN2CCC(CCCO)(c3ccc(F)cc3)OC2=O)cc1 (stereo not drawn) [EXAMPLE 386, 2′((6-(4-fluorophenyl)-6-(3-hydroxypropyl)-2-oxo-1,3-oxazinan-3-yl)methyl)biphenyl-4-carboxamide]
- IC50: < 100 nM
- inhibition at 0.1 µM [3]: 52.5%

SMILES: C[C@@H](c1ccc(Cl)c(F)c1)N1CC[C@](CCCNS(C)(=O)=O)(c2ccc(F)cc2)OC1=O [EXAMPLE 535, N-(3-((R)-3-((S)-1-(4-chloro-3-fluorophenyl)ethyl)-6-(4-fluorophenyl)-2-oxo-1,3-oxazinan-6-yl)propyl)methanesulfonamide]
- IC50: < 100 nM
- inhibition at 0.1 µM [3]: 96.8%

SMILES: C[C@@H](c1ccc(N2CCCCS2(=O)=O)cc1)N1CC[C@](CCO)(c2ccc(F)cc2)OC1=O [EXAMPLE 259, (S)-6-(4-fluorophenyl)-6-(2-hydroxyethyl)-3-((S)-1-(4-(1,1-dioxo-hexahydro-1,2-thiazin-2-yl)phenyl)ethyl)-1,3-oxazinan-2-one]
- IC50: < 100 nM
- inhibition at 0.1 µM [2]: 43.1%

SMILES: O=C1OC(CCO)(c2ccccc2F)CCN1c1ccc(Cl)c(-c2ccc(F)cc2)n1 (stereo not drawn) [EXAMPLE 133, 3-(5-chloro-6-(4-fluorophenyl)pyridin-2-yl)-6-(2-fluorophenyl)-6-(2-hydroxyethyl)-1,3-oxazinan-2-one]
- IC50: < 100 nM
- inhibition at 0.1 µM (read-out: Average % inhibition at 100 nM): 85.8%
- inhibition at 0.1111 µM [4]: 95.4%

SMILES: C=CCC1(c2cccs2)CCN([C@@H](C)c2ccc(Br)cc2)C(=O)O1 (single isomer, unassigned) [EXAMPLE 157 Isomer 1]
- IC50: < 100 nM
- inhibition at 0.1 µM [2]: 97.4%

SMILES: C[C@@H](c1ccc(OC(F)F)cc1)N1CC[C@](CCCO)(c2ccccc2)OC1=O [EXAMPLE 329, (R)-3-((S)-1-(4-(difluoromethoxy)phenyl)ethyl)-6-(3-hydroxypropyl)-6-phenyl-1,3-oxazinan-2-one]
- IC50: < 100 nM
- inhibition at 0.1 µM [3]: 99.8%

SMILES: CC(O)CC1(C(C)C)CCN([C@@H](C)c2ccc(-c3ccc(F)cc3F)cc2)C(=O)O1 (stereo partly drawn) [EXAMPLE 213, 3-((1S)-1-(2′,4′-difluorobiphenyl-4-yl)ethyl)-6-(2-hydroxypropyl)-6-isopropyl-1,3-oxazinan-2-one]
- IC50: < 100 nM
- inhibition at 0.1 µM [2]: 79.1%

SMILES: C=CCC1(c2ccc(F)cc2)CCN(Cc2cc(Cl)ccc2Cl)C(=O)O1 (stereo not drawn) [EXAMPLE 344, 6-allyl-3-(2,5-dichlorobenzyl)-6-(4-fluorophenyl)-1,3-oxazinan-2-one]
- IC50: < 100 nM
- inhibition at 0.1 µM [3]: 65.7%

SMILES: C=CC[C@]1(c2ccc(F)cc2)CCN([C@@H](C)c2cccc(C(C)(C)O)c2)C(=O)O1 [EXAMPLE 364, (R)-6-allyl-6-(4-fluorophenyl)-3-((S)-1-(3-(2-hydroxypropan-2-yl)phenyl)ethyl)-1,3-oxazinan-2-one]
- IC50: < 100 nM
- inhibition at 0.1 µM [3]: 66.3%

SMILES: CC1(c2ccccc2)CCN(c2cccc(-c3cccc(N)c3)c2)C(=O)O1 (stereo not drawn) [EXAMPLE 32, 3-(3′-aminobiphenyl-3-yl)-6-methyl-6-phenyl-1,3-oxazinan-2-one]
- IC50: 100 to 1000 nM
- inhibition at 0.1111 µM [1]: 46%

SMILES: CC(=O)NCc1cccc(-c2cccc(N3CCC(C)(c4ccccc4)OC3=O)c2)c1 (stereo not drawn) [EXAMPLE 41, N-((3′-(6-methyl-2-oxo-6-phenyl-1,3-oxazinan-3-yl)biphenyl-3-yl)methyl)acetamide]
- IC50: 100 to 1000 nM
- inhibition at 0.1111 µM [1]: 19.9%
